Measured values: US6087355A, “Cephalosporin antibiotics” (Microcide Pharmaceuticals, Inc., priority 1996, dated 2000)
Counter-ions that a name gives are not always drawn.

Tests used:
[1] = system: S. aureus Col8A(Meth^S)(lac^-); assay: In vitro MIC, agar dilution; type: cell-based; details: for MIC: Staphylococcus aureus, S. aureus Col8A(Meth^S)(lac^-), read-out: minimum inhibitory concentration (MIC)
How it was run: (§1)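 Two-fold dilutions (128 to ≤0.25 μg/mL, in duplicate) were poured into Mueller-Hinton agar. Log-phase broth cultures were spot-inoculated at about 10^4 cfu per spot and incubated 35-36°C for 16-20 hours; the MIC was the lowest concentration inhibiting growth. Col is a high-level PBP2a producer; Col 8A is its isogenic PBP2a-lacking partner.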

E. coli ATCC 25992 = assay: In vitro MIC, agar dilution; type: cell-based; details: Escherichia coli, ATCC25992, read-out: minimum inhibitory concentration (MIC)
How it was run: (§2)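 Growth inhibition was scored after 16-20 h at 35-36 °C on Mueller-Hinton agar carrying serial two-fold drug concentrations (128 to ≤0.25 μg/mL). Inocula of ~10^4 cfu per spot came from 4-6 h broth cultures.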

E. faecalis ATCC 29212 = assay: In vitro MIC, agar dilution; type: cell-based; details: Enterococcus faecalis, ATCC29212, read-out: minimum inhibitory concentration (MIC)
How it was run: as §2

E. faecalis VanB(Van^R) = assay: In vitro MIC, agar dilution; type: cell-based; details: Enterococcus faecalis, read-out: minimum inhibitory concentration (MIC)
How it was run: as §2

E. faecium A491(Amp^R) = assay: In vitro MIC, agar dilution; type: cell-based; details: Enterococcus faecium, read-out: minimum inhibitory concentration (MIC)
How it was run: as §2

E. faecium ATCC 35667 = assay: In vitro MIC, agar dilution; type: cell-based; details: Enterococcus faecium, ATCC35667, read-out: minimum inhibitory concentration (MIC)
How it was run: as §2

E. faecium VanA(Van^R) = assay: In vitro MIC, agar dilution; type: cell-based; details: Enterococcus faecium, read-out: minimum inhibitory concentration (MIC)
How it was run: as §2

P. aeruginosa ATCC 27853 = assay: In vitro MIC, agar dilution; type: cell-based; details: Pseudomonas aeruginosa, ATCC27853, read-out: minimum inhibitory concentration (MIC)
How it was run: as §2

[2] = system: S. aureus 76(Meth^R)(lac^+); assay: In vitro MIC, agar dilution; type: cell-based; details: Staphylococcus aureus, read-out: minimum inhibitory concentration (MIC)
How it was run: as §2

S. aureus ATCC 29213 = assay: In vitro MIC, agar dilution; type: cell-based; details: Staphylococcus aureus, ATCC29213, read-out: minimum inhibitory concentration (MIC)
How it was run: as §2

[3] = system: S. aureus ATCC 33593(Meth^R); assay: In vitro MIC, agar dilution; type: cell-based; details: Staphylococcus aureus, ATCC33593, read-out: minimum inhibitory concentration (MIC)
How it was run: as §2

[4] = system: S. aureus PC1(Meth^S)(lac^+); assay: In vitro MIC, agar dilution; type: cell-based; details: Staphylococcus aureus, read-out: minimum inhibitory concentration (MIC)
How it was run: as §2

[5] = system: S. aureus Spain #356(Meth^R); assay: In vitro MIC, agar dilution; type: cell-based; details: Staphylococcus aureus, read-out: minimum inhibitory concentration (MIC)
How it was run: as §2

[6] = system: S. haemolyticus 05(Meth^R); assay: In vitro MIC, agar dilution; type: cell-based; details: Staphylococcus haemolyticus, read-out: minimum inhibitory concentration (MIC)
How it was run: as §2

[7] = system: S. aureus Col(Meth^R)(lac^-); assay: In vitro MIC, agar dilution; type: cell-based; details: Staphylococcus aureus, read-out: minimum inhibitory concentration (MIC)
How it was run: as §1

[8] = system: S. aureus strain ATCC 13709 (methicillin-susceptible); assay: Murine model for lethal bacteremic peritonitis; type: in vivo, female Swiss-Webster mice; details: Staphylococcus aureus, ATCC13709, SC, 72 h; for responders at 1.25 mg/kg: read-out: Survivors (converted); for ED50: two equal doses, IP challenge, read-out: ED50
How it was run: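 Female Swiss-Webster mice were challenged IP with an LD100 inoculum in 7% hog gastric mucin, then given test drug subcutaneously in twofold increments (0.01–512 mg/kg) as two equal doses at challenge and 2 h later, 10 mice per group. Survival was scored at 72 h; PD50 (total mg/kg) was derived by probit.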

[9] = system: S. aureus ATCC 13709(Meth^S); assay: In vitro MIC, agar dilution; type: cell-based; details: Staphylococcus aureus, ATCC13709, S. aureus ATCC 13709(Meth^S); read-out: minimum inhibitory concentration (MIC)
How it was run: as §2

Row | Structure (SMILES) | MIC (E. coli ATCC 25992) | MIC (E. faecalis ATCC 29212) | MIC (E. faecalis VanB(Van^R)) | MIC (E. faecium A491(Amp^R)) | MIC (E. faecium ATCC 35667) | MIC (E. faecium VanA(Van^R)) | MIC (P. aeruginosa ATCC 27853) | MIC [2] | MIC (S. aureus ATCC 29213) | MIC [3] | MIC [4] | MIC [5] | MIC [6] | MIC [7] | MIC [1] | responders at 0.3125 mg/kg ([8]; read-out: Survivors) | responders at 0.625 mg/kg ([8]; read-out: Survivors) | responders at 1.25 mg/kg [8] | responders at 2.5 mg/kg ([8]; read-out: Survivors) | MIC [9] | other results
1 | CO/N=C(\C(=O)N[C@@H]1C(=O)N2C(C(=O)O)=C(COC(C)=O)CS[C@H]12)c1csc(N)n1 [Cefotaxime, cefotaxime, reference compound] | – | – | – | – | – | – | – | – | – | – | – | – | – | – | – | – | – | – | – | – | responsiveness of S. aureus Col 8A strain ([1]; in words): highly responsive
2 | N=C(N)SCc1cnccc1SC1=C(C(=O)O)N2C(=O)[C@@H](NC(=O)Cc3ccccc3)[C@H]2SC1 [Cmpd 1, (7R)-7-[(phenylacetyl)amino]-3-(3-isothioureidomethylpyrid-4-ylthio)-3-cephem-4-carboxylate, trifluoroacetic acid salt] | > 32 µg/mL | 1 µg/mL | 4 µg/mL | > 32 µg/mL | 2 µg/mL | 8 µg/mL | > 32 µg/mL | 8 µg/mL | 0.13 µg/mL | 8 µg/mL | 1 µg/mL | 8 µg/mL | 16 µg/mL | 4 µg/mL | ≤ 0.06 µg/mL | 50% | 60% | 80% | 100% | – | responders at 0.156 mg/kg ([8]; Dose 0.156 mg/kg, read-out: Survivors): 20%; ED50 [8]: 0.39 mg/kg
3 | N=C(N)SCc1nnsc1SC1=C(C(=O)O)N2C(=O)[C@@H](NC(=O)Cc3ccccc3)[C@H]2SC1 [Cmpd 2, (7R)-7-[(phenylacetyl)amino]-3-(4-isothioureidomethyl-1,2,3-thiadiazol-5-ylthio)-3-cephem-4-carboxylate, trifluoroacetic acid salt] | 16 µg/mL | 0.5 µg/mL | 0.5 µg/mL | > 32 µg/mL | 1 µg/mL | 4 µg/mL | > 32 µg/mL | 4 µg/mL | ≤ 0.06 µg/mL | 4 µg/mL | 0.5 µg/mL | 4 µg/mL | 4 µg/mL | 1 µg/mL | ≤ 0.06 µg/mL | – | – | – | – | – | –
4 | NCCCCCOCc1cnccc1SC1=C(C(=O)O)N2C(=O)[C@@H](NC(=O)/C(=N\O)c3nc(N)sc3Cl)[C@H]2SC1 [Cmpd 44, (7R)-7-[(Z)-2-(2-amino-5-chlorothiazol-4-yl)-2-(hydroxyimino)acetamido]-3-(3-(5-aminopentyloxymethyl)pyrid-4-ylthio)-3-cephem-4-carboxylate, trifluoroacetic acid salt] | 8 µg/mL | 0.13 µg/mL | – | 16 µg/mL | 4 µg/mL | 2 µg/mL | > 32 µg/mL | 4 µg/mL | 0.5 µg/mL | 4 µg/mL | 2 µg/mL | 4 µg/mL | 8 µg/mL | 4 µg/mL | 0.5 µg/mL | – | – | – | – | 2 µg/mL | –
5 | NCCS(=O)(=O)Cc1cnccc1SC1=C(C(=O)O)N2C(=O)[C@@H](NC(=O)/C(=N\O)c3nc(N)sc3Cl)[C@H]2SC1 [Cmpd 45, (7R)-7-[(Z)-2-(2-amino-5-chlorothiazol-4-yl)-2-(hydroxyimino)acetamido]-3-(3-aminoethylsulfonylmethylpyrid-4-ylthio)-3-cephem-4-carboxylate, trifluoroacetic acid salt] | 16 µg/mL | 0.13 µg/mL | – | 16 µg/mL | 2 µg/mL | 4 µg/mL | > 32 µg/mL | 4 µg/mL | 1 µg/mL | 4 µg/mL | 2 µg/mL | 4 µg/mL | 8 µg/mL | 4 µg/mL | 1 µg/mL | – | – | – | – | 2 µg/mL | –
6 | NCCCCOCc1cnccc1SC1=C(C(=O)O)N2C(=O)[C@@H](NC(=O)/C(=N\O)c3nc(N)sc3Cl)[C@H]2SC1 [Cmpd 46, (7R)-7-[(Z)-2-(2-amino-5-chlorothiazol-4-yl)-2-(hydroxyimino)acetamido]-3-(3-(4-aminobutyloxymethyl)pyrid-4-ylthio)-3-cephem-4-carboxylate, trifluoroacetic acid salt] | 8 µg/mL | 0.13 µg/mL | – | 16 µg/mL | 2 µg/mL | 2 µg/mL | > 32 µg/mL | 4 µg/mL | 1 µg/mL | 2 µg/mL | 2 µg/mL | 4 µg/mL | 8 µg/mL | 2 µg/mL | 0.5 µg/mL | – | – | – | – | 2 µg/mL | –
7 | NCCCOCc1cnccc1SC1=C(C(=O)O)N2C(=O)[C@@H](NC(=O)/C(=N\O)c3nc(N)sc3Cl)[C@H]2SC1 [Cmpd 47, (7R)-7-[(Z)-2-(2-amino-5-chlorothiazol-4-yl)-2-(hydroxyimino)acetamido]-3-(3-(3-aminopropyloxymethyl)pyrid-4-ylthio)-3-cephem-4-carboxylate, trifluoroacetic acid salt] | 8 µg/mL | 0.13 µg/mL | – | 16 µg/mL | 2 µg/mL | 2 µg/mL | > 32 µg/mL | 2 µg/mL | 1 µg/mL | 2 µg/mL | 2 µg/mL | 2 µg/mL | 4 µg/mL | 2 µg/mL | 0.5 µg/mL | – | – | – | – | 2 µg/mL | –
8 | Nc1nc(/C(=N/O)C(=O)N[C@@H]2C(=O)N3C(C(=O)O)=C(Sc4ccncc4CSCC(N)CO)CS[C@H]23)c(Cl)s1 (stereo partly drawn) [Cmpd 56, (7R)-7-[(Z)-2-(2-amino-5-chlorothiazol-4-yl)-2-(hydroxyimino)acetamido]-3-[3-(2RS-2-amino-3-hydroxyprop-1-ylthiomethyl)pyrid-4-ylthio]-3-cephem-4-carboxylate, trifluoroacetic acid salt] | 8 µg/mL | 0.13 µg/mL | 2 µg/mL | 8 µg/mL | 1 µg/mL | 1 µg/mL | > 32 µg/mL | 2 µg/mL | 0.5 µg/mL | 2 µg/mL | 0.5 µg/mL | 2 µg/mL | 4 µg/mL | 2 µg/mL | – | 20% | 30% | 30% | 80% | 0.25 µg/mL | responders at 5 mg/kg ([8]; read-out: Survivors): 80%; ED50 [8]: 1.23 mg/kg
9 | CNCCNCCSCc1cnccc1SC1=C(C(=O)O)N2C(=O)[C@@H](NC(=O)/C(=N\O)c3nc(N)sc3Cl)[C@H]2SC1 [Cmpd 57, (7R)-7-[(Z)-2-(2-amino-5-chlorothiazol-4-yl)-2-(hydroxyimino)acetamido]-3-(3-(N-methylaminoethylaminoethylthiomethyl)pyrid-4-ylthio)-3-cephem-4-carboxylate, trifluoroacetic acid salt] | 4 µg/mL | 0.13 µg/mL | 4 µg/mL | 16 µg/mL | 1 µg/mL | 2 µg/mL | > 32 µg/mL | 4 µg/mL | 1 µg/mL | 4 µg/mL | 1 µg/mL | 4 µg/mL | 8 µg/mL | 4 µg/mL | – | 40% | 40% | 40% | 50% | 0.5 µg/mL | responders at 5 mg/kg ([8]; read-out: Survivors): 90%; ED50 [8]: 1.08 mg/kg
